# According to patent publication US10981932B2, “Macrocyclic indole derivatives” (Bayer Aktiengesellschaft, priority 2016, dated 2021):
# Where a name gives a salt, the structure may show the parent alone. Read-outs that look alike come from different tables or passages of the source.
# How the values were obtained:
# A2780 = test: Anti-proliferative effect (CellTiter-Glo, 72 h), A2780; format: cell-based; details: A2780 cells, median, read-out: IC50 antiproliferation assay A2780 [M] (median)
# Method in brief: (§1)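 Cells were treated with compounds for 72 h at 37 °C in a humidified incubator, and viability was measured by CellTiter-Glo luminescence. A parallel day 0 plate, read the same way, gave the time zero baseline.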
# SUDHL5 [1] = test: Induction of cytotoxicity (CellTiter-Glo, 5 h), SUDHL5
# SUDHL10 [2] = test: Anti-proliferative effect (CellTiter-Glo, 72 h), SUDHL10; format: cell-based; details: SUDHL10 cells, antiproliferation, median, read-out: Antiproli SUDHL10 [M] (median)
# Method in brief: as §1
# SUDHL5 [3] = test: Anti-proliferative effect (CellTiter-Glo, 72 h), SUDHL5; format: cell-based; details: SUDHL5 cells, antiproliferation, median, read-out: Antiproli SUDHL5 [M] (median)
# Method in brief: as §1
# MCL-1 = MCL-1 (Homo sapiens, UniProt Q07820); test: Protein-protein interaction assay MCL-1/Noxa BH3 peptide (MCL-1 assay), TR-FRET; format: binding; details: MBP-MCL-1 / Noxa BH3-derived peptide, median
# Method in brief: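 TR-FRET, 665/622 nm emission ratio (excitation 330–350 nm), measured MCL-1/Noxa complex formation. 1 nM MBP-MCL-1, 50 mM Tris/HCl pH 7, 0.1% BGG, 2 mM DTT. Incubation 1 h at 22 °C, then overnight at 4 °C. IC50 by 4-parameter regression, normalized to DMSO (0%) and no-MCL-1 (100%) controls.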
# SUDHL5 [4] = test: Induction of caspase-3/7 activity (Caspase-Glo 3/7), SUDHL5; format: cell-based; details: caspase-3/7 induction, SUDHL5 cells, 3 h treatment, median
# Method in brief: (§2)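 DLBCL cells treated with compounds for 3 h at 37 °C, then caspase-3/7 activity read by Caspase-Glo 3/7 luminescence. Medium-only background subtracted; EC50 fitted with C0 fixed at 1 and top set to the reference compound's maximal induction.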
# SUDHL10 [5] = test: Induction of caspase-3/7 activity (Caspase-Glo 3/7), SUDHL10; format: cell-based; details: caspase-3/7 induction, SUDHL10 cells, 3 h treatment, median
# Method in brief: as §2
# SUDHL10 [6] = test: Induction of cytotoxicity (CellTiter-Glo, 5 h), SUDHL10
# [7] = read-out: Cytotox SUDHL5 [M] (median), SUDHL5 cells, cytotoxicity induction, CellTiter-Glo, 5 h incubation, median
# [8] = read-out: Cytotox SUDHL10 [M] (median), SUDHL10 cells, cytotoxicity induction, CellTiter-Glo, 5 h incubation, median
# [9] = read-out: Cytotox SUDHL5 [M] (median), SUDHL5 cells, cytotoxicity induction, CellTiter-Glo, 5 h, median
# [10] = read-out: Cytotox SUDHL10 [M] (median), SUDHL10 cells, cytotoxicity induction, CellTiter-Glo, 5 h, median
# Chain of MCL-1 (Q07820 whole entry): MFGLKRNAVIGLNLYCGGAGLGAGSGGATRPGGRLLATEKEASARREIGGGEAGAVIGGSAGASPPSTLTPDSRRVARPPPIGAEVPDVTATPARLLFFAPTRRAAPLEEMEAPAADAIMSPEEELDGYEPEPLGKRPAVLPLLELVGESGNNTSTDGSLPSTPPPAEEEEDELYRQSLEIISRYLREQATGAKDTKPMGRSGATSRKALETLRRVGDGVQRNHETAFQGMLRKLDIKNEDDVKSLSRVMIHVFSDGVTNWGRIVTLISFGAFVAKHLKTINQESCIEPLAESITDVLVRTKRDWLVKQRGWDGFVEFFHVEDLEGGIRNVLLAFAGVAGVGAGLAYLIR
IC50 (A2780) [M],IC50 (SUDHL10 [2]; 72 h incubation) [M],IC50 (SUDHL5 [3]; 72 h incubation) [M],IC50 (MCL-1) [µM],EC50 (SUDHL5 [4]) [µM],EC50 (SUDHL10 [5]) [µM],IC50 (SUDHL10 [2]; 72 h) [M],IC50 (SUDHL5 [3]; 72 h) [M],"IC50 (A2780; Homo sapiens, A2780, 72 h) [M]","IC50 (SUDHL10 [2]; Homo sapiens, SU-DHL10, 72 h, 72 h) [M]","IC50 (SUDHL5 [3]; Homo sapiens, SU-DHL-5, 72 h, 72 h) [M]","EC50 (SUDHL5 [4]; Homo sapiens, SU-DHL-5, 3 h) [µM]","EC50 (SUDHL10 [5]; Homo sapiens, SU-DHL10, 3 h) [µM]",SMILES,IC50 (SUDHL5 [1]; [7]) [M],IC50 (SUDHL10 [6]; [8]) [M],IC50 (SUDHL5 [1]; [9]) [M],IC50 (SUDHL10 [6]; [10]) [M],"IC50 (SUDHL5 [1]; Homo sapiens, SU-DHL-5, 5 h, read-out: Cytotox SUDHL5 [M] (median), SUDHL5 cells, cytotoxicity induction, CellTiter-Glo, 5 h, median)","IC50 (SUDHL10 [6]; Homo sapiens, SU-DHL10, 5 h, read-out: Cytotox SUDHL10 [M] (median), SUDHL10 cells, cytotoxicity induction, CellTiter-Glo, 5 h, median)"
1.75e-05,6.02e-06,1.91e-05,0.122,> 33,> 33,–,–,–,–,–,–,–,"Cn1nc(CN2CC(F)(F)C2)c2c1COCCCCn1c(C(=O)O)c(CCCOc3cccc4ccccc34)c3cccc-2c31 (single isomer, unassigned; enantiomer 2) [Example 182, 3-[(3,3-difluoroazetidin-1-yl)methyl]-1-methyl-7-[3-(naphthalen-1-yloxy)propyl]-1,10,11,12,13,15-hexahydropyrazolo[4′,3′:9,10][1,6]oxazacycloundecino[8,7,6-hi]indole-8-carboxylic acid-N-ethylethanamine Salt (Enantiomer 2)]",> 3.3e-05,> 3.3e-05,–,–,–,–
1.88e-05,8.53e-06,1.98e-05,0.211,> 33,> 33,–,–,–,–,–,–,–,"COCc1nn(C)c2c1-c1cccc3c(CCCOc4cccc5ccccc45)c(C(=O)O)n(c13)CCCCN(C)C2 (single isomer, unassigned; enantiomer 2) [Example 185, 3-(methoxymethyl)-1,14-dimethyl-7-[3-(naphthalen-1-yloxy)propyl]-10,11,12,13,14,15-hexahydro-1H-pyrazolo[3′,4′:8,9][1,6]diazacycloundecino[10,11,1-hi]indole-8-carboxylic acid —N-ethylethanamine Salt (Enantiomer 2)]",2.75e-05,> 3.3e-05,–,–,–,–
1.78e-05,2.01e-05,1.09e-05,0.142,> 33,> 33,–,–,–,–,–,–,–,"CCCc1nn(C)c2c1-c1c(C)ccc3c(CCCOc4cccc5ccccc45)c(C(=O)O)n(c13)CCCCOC2 (single isomer, unassigned; enantiomer 2) [Example 189, 1,4-dimethyl-7-[3-(naphthalen-1-yloxy)propyl]-3-propyl-1,10,11,12,13,15-hexahydropyrazolo[4′3′:9,10][1,6]oxazacycloundecino[8,7,6-hi]indole-8-caboxylic acid-N-ethylethanamine Salt (Enantiomer 2)]",2.86e-05,> 3.3e-05,–,–,–,–
1.8e-05,9.22e-06,2.03e-05,0.123,> 33,> 33,–,–,–,–,–,–,–,"Cc1c2c(nn1C)CCCCCCn1c(C(=O)O)c(CCCOc3cccc4ccccc34)c3cccc-2c31 (single isomer, unassigned; enantiomer 2) [Example 192, 2,3-dimethyl-7-[3-(1-naphthyloxy)propyl]-10,11,12,13,14,15-hexahydro-2H-pyrazolo[4′,3′:4,5]azacycloundecino[3,2,1-hi]indole-8-carboxylic acid-N-ethylethanamine Salt (Enantiomer 2)]",> 3.3e-05,> 3.3e-05,–,–,–,–
1.27e-05,1.32e-05,5.84e-06,0.0532,> 33,> 33,–,–,–,–,–,–,–,"Cn1nc2c(c1C(F)(F)F)-c1cccc3c(CCCOc4cccc5ccccc45)c(C(=O)O)n(c13)CCCCOC2 (single isomer, unassigned; enantiomer 2) [Example 195, 2-methyl-7-[3-(naphthalen-1-yloxy)propyl]-3-(trifluoromethyl)-2,10,11,12,13,15-hexahydropyrazolo[4′,3′:9,10][1,6]oxazacycloundecino[8,7,6-hi]indole-8-carboxylic Acid (Enantiomer 2)]",> 3.3e-05,> 3.3e-05,–,–,–,–
1.49e-05,8.15e-06,1.78e-05,0.104,28.7,> 33,–,–,–,–,–,–,–,"CCCc1nn(C)c2c1-c1c(C)ccc3c(CCCOc4cccc5ccccc45)c(C(=O)O)n(c13)CCCN(C)C2 (single isomer, unassigned; enantiomer 2) [Example 197, 7,9,12-trimethyl-1-[3-(naphthalen-1-yloxy)propyl]-1-propyl-4,5,6,7,8,9-hexahydropyrazolo[3′,4′:7,8][1,5]diazecino[9,10,1-hi]indole-2-carboxylic acid-N-ethylethanamine Salt (Enantiomer 2)]",1.93e-05,1.55e-05,–,–,–,–
2.57e-05,1.12e-05,1.87e-05,0.0248,> 33,18.8,–,–,–,–,–,–,–,"CCc1nn(CCN2CCOCC2)c2c1-c1cccc3c(CCCOc4cccc5ccccc45)c(C(=O)O)n(c13)CCCCOC2 (single isomer, unassigned; enantiomer 2) [Example 200, 3-ethyl-1-[2-(morpholin-4-yl)ethyl]-7-[3-(naphthalen-1-yloxy)propyl]-1,10,11,12,13,15-hexahydropyrazolo[4′3′:9,10][1,6]oxazacycloundecino[8,7,6-hi]indole-carboxylic Acid (Enantiomer 2)]",2.41e-05,1.99e-05,–,–,–,–
1e-05,–,–,0.639,30.3,> 33,4.61e-06,1.22e-05,–,–,–,–,–,"COc1ccc(OCc2nn(C)c3c2-c2cccc4c(CCCOc5cccc6ccccc56)c(C(=O)O)n(c24)CCCCOC3)cc1 (single isomer, unassigned; enantiomer 2) [Example 321, 3-[(4-methoxyphenoxy)methyl]-1-methyl-7-[3(naphthalen-1 yloxy)propyl]-1,10,11,12,13,15-hexahydropyrazolo[4′,3′:9,10][1,6]oxazacycloundecino[8,7,6-hi]indole-8-carboxylic acid-N-ethylethanamine Salt (Enantiomer 2)]",–,–,2.97e-05,2.56e-05,–,–
2.18e-05,–,–,0.32,> 33,> 33,1.36e-05,1.32e-05,–,–,–,–,–,"Cn1nc(COc2ccc(NS(C)(=O)=O)cc2)c2c1COCCCCn1c(C(=O)O)c(CCCOc3cccc4ccccc34)c3cccc-2c31 (single isomer, unassigned; enantiomer 2) [Example 323, 1-methyl-3-({4-[(methylsulfonyl)amino]phenoxy}methyl)-7-[3-(naphthalen-1-yloxy)propyl]-1,10,11,12,13,15-hexahydropyrazolo[4′,3′:9,10][1,6]oxazacycloundecino[8,7,6-hi]indole-8-carboxylic acid-N-ethylethanamine Salt (Enantiomer 2)]",–,–,> 3.3e-05,> 3.3e-05,–,–
3.12e-05,–,–,0.103,> 33,> 33,1.3e-05,2.48e-05,–,–,–,–,–,"Cn1nc(CN2CCCCC2=O)c2c1COCCCCn1c(C(=O)O)c(CCCOc3cccc4ccccc34)c3cccc-2c31 (single isomer, unassigned; enantiomer 2) [Example 327, 1-methyl-7-[3-(naphthalen-1-yloxy)propyl]-3-[(2-oxopiperidin-1-yl)methyl]-1,10,11,12,13,15-hexahydropyrazolo[4′,3′:9,10][1,6]oxazacycloundecino[8,7,6-hi]indole-8-carboxylic Acid (Enantiomer 2)]",–,–,> 3.3e-05,> 3.3e-05,–,–
–,–,–,3,–,–,–,–,> 3.3e-05,> 3.3e-05,> 3.3e-05,> 33,> 33,"Cn1nc(CN2CCCC2=O)c2c1COCCCCn1c(C(=O)O)c(CCCOc3cccc4ccccc34)c3cccc-2c31 (single isomer, unassigned; enantiomer 2) [Example 329, 1-methyl-7-[3-(naphthalen-1-yloxy)propyl]-3-[(2-oxopyrrolidin-1-yl)methyl]-1,10,11,12,13,15-hexahydropyrazolo[4′,3′:9,10][1,6]oxazacycloundecino[8,7,6-hi]indole-8-carboxylic Acid (Enantiomer 2)]",–,–,–,–,> 3.3e-05,> 3.3e-05
